Nine compounds from ChEMBL document CHEMBL4417641, “Use of 2-(substituted phenylamino)benzoic acid fto inhibitor in treating leukemia” (2018) can be followed below.

The source made the active and inactive calls. The calls are words filed in the database; no cut-off is given here.

The IC50 is the concentration that gives 50% inhibition.

The target of assay [1] is Alpha-ketoglutarate-dependent dioxygenase FTO (Homo sapiens, UniProt Q9C0B1). Nature of the assay: Inhibition of FTO (unknown origin) assessed as reduction in demethylation using 39nt-m6 A-ssDNA and 2OG incubated for 2 hrs by non-denaturing polyacrylamide electrophoresis method.
Assay [2] concerns NB-4. Nature of the assay: Cytotoxicity against human NB4 cells assessed as inhibition of cell growth incubated for 72 hrs by MTS assay relative to control. In kind it is functional. (In general: Formazan colour is commonly taken as a measure of viable cells.)
Assay [3] can be described thus: Cytotoxicity against human MM6 cells assessed as inhibition of cell growth incubated for 72 hrs by MTS assay relative to control. In kind it is functional.
For assay [4], the system named is NB-4. Nature of the assay: Cytotoxicity against human NB4 cells assessed as inhibition of cell growth incubated for 72 hrs by MTS assay. The format is functional, cell-based. The following applies: NB-4, 72 h.
A short description of assay [5]: Cytotoxicity against human MM6 cells assessed as inhibition of cell growth incubated for 72 hrs by MTS assay. In kind it is functional, cell-based.
The subject of assay [6] is NB-4. Nature of the assay: Cytotoxicity against human NB4 cells assessed as inhibition of cell growth incubated for 48 hrs by MTS assay. In kind it is functional, cell-based. The conditions noted are these: NB-4, 48 h.
The nature of assay [7]: Cytotoxicity against human MM6 cells assessed as inhibition of cell growth incubated for 48 hrs by MTS assay. In kind it is functional, cell-based.
The test system of assay [8] is MONO-MAC-6. Description: Antitumor activity against human MONO-MAC-6 cells xenografted in NSG mouse assessed as mouse survival at 2 mg/kg, ip dosed for ten consecutive days and measured after 40 days post treatment. In kind it is functional. The following applies: MONO-MAC-6, ip, 960 h. A general note: Xenograft models place foreign cells or tissue in a host animal.

For assay [9], the system named is MONO-MAC-6. Nature of the assay: Antitumor activity against human MONO-MAC-6 cells xenografted in NSG mouse assessed as mouse survival at 2 mg/kg, ip dosed for ten consecutive days and measured after 55 days post treatment. The conditions noted are these: MONO-MAC-6, ip, 1320 h. In kind it is functional.
Assay [10] concerns MONO-MAC-6. Nature of the assay: Antitumor activity against human MONO-MAC-6 cells xenografted in NSG mouse assessed as mouse survival at 2 mg/kg, ip dosed for ten consecutive days and measured after 60 days post treatment. The format is functional. The following applies: MONO-MAC-6, ip, 1440 h.
For assay [11], the system named is MONO-MAC-6. Nature of the assay: Antitumor activity against human MONO-MAC-6 cells xenografted in NSG mouse assessed as mouse survival at 2 mg/kg, ip dosed for ten consecutive days and measured after 62 days post treatment. In kind it is functional. The conditions noted are these: MONO-MAC-6, ip, 1488 h.
The subject of assay [12] is MONO-MAC-6. Description: Antitumor activity against human MONO-MAC-6 cells xenografted in NSG mouse assessed as mouse survival at 2 mg/kg, ip dosed for ten consecutive days and measured after 120 days post treatment. In kind it is functional. The following applies: MONO-MAC-6, ip, 2880 h.
Assay [13] relates to MONO-MAC-6. Description: Antitumor activity against human MONO-MAC-6 cells xenografted in NSG mouse assessed as improvement in spleen swelling by measuring spleen weight at 2 mg/kg, ip dosed for ten consecutive days (reference value: 55 mg). In kind it is functional.
Assay [14] relates to MONO-MAC-6. Nature of the assay: Antitumor activity against human MONO-MAC-6 cells xenografted in NSG mouse assessed as improvement in liver swelling by measuring liver weight at 2 mg/kg, ip dosed for ten consecutive days (reference value: 2200 mg). The format is functional.
In assay [15] the test system is MONO-MAC-6. Description: Antitumor activity against human MONO-MAC-6 cells xenografted in NSG mouse assessed as reduction in tumor cell transplantation efficiency at 2 mg/kg, ip dosed for ten consecutive days and measured after 40 to days post treatment. The format is functional, organism-based.

Chain of Alpha-ketoglutarate-dependent dioxygenase FTO (Q9C0B1 whole entry): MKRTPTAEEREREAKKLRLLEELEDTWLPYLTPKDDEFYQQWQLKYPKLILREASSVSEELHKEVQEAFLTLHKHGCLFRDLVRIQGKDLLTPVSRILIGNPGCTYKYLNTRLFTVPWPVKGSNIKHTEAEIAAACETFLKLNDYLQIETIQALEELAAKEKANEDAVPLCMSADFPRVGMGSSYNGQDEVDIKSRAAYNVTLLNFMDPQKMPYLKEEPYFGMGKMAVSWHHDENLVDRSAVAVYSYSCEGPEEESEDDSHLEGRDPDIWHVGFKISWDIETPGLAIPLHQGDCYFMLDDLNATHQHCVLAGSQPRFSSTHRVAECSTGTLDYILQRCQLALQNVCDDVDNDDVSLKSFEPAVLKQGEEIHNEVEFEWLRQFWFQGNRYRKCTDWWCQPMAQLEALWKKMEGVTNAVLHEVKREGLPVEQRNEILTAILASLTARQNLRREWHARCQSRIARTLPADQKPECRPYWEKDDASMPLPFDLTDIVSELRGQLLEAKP

Regarding `Cc1noc(C)c1-c1cc(Cl)c(Nc2ccccc2-c2noc(=O)[nH]2)c(Cl)c1`, the IC50 in assay [1] amounted to 1.1 µM; with NB-4 [4], 5.3 µM; in [5] it was 5.8 µM; in the assay on NB-4 [6], 6.3 µM; in [7] it was 9.9 µM. Besides, the “growth inhibition (GI)” value (in the assay with NB-4 [2]; in assay [3]) was 100% throughout.
On to `Cc1cc(C)n(-c2cc(Cl)c(Nc3ccccc3C(=O)O)c(Cl)c2)n1`, for which the IC50 in assay [1] was 30 to 50 µM.
For `Cc1n[nH]c(C)c1-c1cc(Cl)c(Nc2ccccc2C(=O)O)c(Cl)c1`, the “growth inhibition (GI)” value stood at 20% with NB-4 [2] and 18% in assay [3].
As to `Cc1noc(C)c1-c1cc(Cl)c(Nc2ccccc2C(=O)O)c(Cl)c1`, the “growth inhibition (GI)” value in the assay with NB-4 [2] turned out to be 70%; in assay [3] it was 75%. The IC50 came out at 44.8 µM in the assay with NB-4 [4] and 23.6 µM in assay [5].
As for `O=C(O)c1ccccc1Nc1c(Cl)cc(-c2ccncc2)cc1Cl`, the IC50 in assay [1] turned out to be 4.6 µM. Also, the “growth inhibition (GI)” value came to 39% in the assay on NB-4 [2] and 46% in [3].
Take `Cc1noc(C)c1-c1cc(Cl)c(Nc2ccccc2C(=O)NO)c(Cl)c1`: the IC50 in [1] came out at 1.6 µM; with NB-4 [4], 0.8 µM; in [5], 1.5 µM; in the assay with NB-4 [6] it was 4.7 µM; in assay [7] it was 10.4 µM. Besides, the “growth inhibition (GI)” value (in the assay with NB-4 [2]; in assay [3]) was 100% throughout. Also, the survival at 2 mg/kg with MONO-MAC-6 [8] stood at 80%; with MONO-MAC-6 [9], 60%; in the assay on MONO-MAC-6 [10], 40%; in the assay on MONO-MAC-6 [11] it was 30%; with MONO-MAC-6 [12] it was 15%. Also, the Activity in the assay with MONO-MAC-6 [13] was determined as 18 mg; in the assay with MONO-MAC-6 [14] it was 800 mg. Further, the outcome in the assay with MONO-MAC-6 [15] was Active.
For `Cc1noc(C)c1-c1cc(Cl)c(Nc2ccccc2-c2nn[nH]n2)c(Cl)c1`, the “growth inhibition (GI)” value in the assay with NB-4 [2] was 26%; in assay [3] it was 23%.
With `O=C(O)c1ccccc1Nc1c(Cl)cc(-c2ccn[nH]2)cc1Cl`, the IC50 in [1] was 7.6 µM. Moreover, the results for the “growth inhibition (GI)” value (with NB-4 [2]; in assay [3]) were 25% and 29%, respectively.
As to `O=C(O)c1ccc(-c2cc(Cl)c(Nc3ccccc3C(=O)O)c(Cl)c2)s1`, the 50% inhibitory concentration (IC50) in assay [1] came to 1.2 µM.
